Test results reported in patent US11358952B2, “Substituted 4-aminoisoindoline-1,3-dione compounds, compositions thereof, and methods of treatment therewith” (Celgene Corporation, priority 2018, dated 2022).

These molecules were tested on SU-DHL-4 cell line (assay: SU-DHL-4 cell proliferation assay (Cell Titer-Glo viability)). Conditions: Homo sapiens; cell viability IC50 activity level, DLBCL cell line SU-DHL-4, 120 hours post-treatment; read-out: SU-DHL-4 Act.
Format: cell-based
How it was run: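 SU-DHL-4 cells (500/well, RPMI-1640 + 10% FBS) exposed to 20-point compound dilutions (0.5 nM–10 μM, 0.1% DMSO) for 120 h at 37°C, 5% CO2. Viability measured by Cell Titer-Glo luminescence at t0 and at 120 h. IC50 is the concentration giving 50% of DMSO control, from a four-parameter logistic fit.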

With `CC(C)S(=O)(=O)C1CCN(Cc2ccc(CNc3cccc4c3C(=O)N(C3CCC(=O)NC3=O)C4=O)c(F)c2)CC1` (stereo not drawn) [Cpd 174, 2-(2,6-dioxopiperidin-3-yl)-4-(2-fluoro-4-((4-(isopropylsulfonyl)piperidin-1-yl)methyl)benzylamino)isoindoline-1,3-dione] as the molecule, how does the IC50 read?
The IC50 was under 200 nM.

How did the IC50 turn out when `CC(C)S(=O)(=O)N1CCN(Cc2ccc(CNc3cccc4c3C(=O)N(C3CCC(=O)NC3=O)C4=O)c(F)c2)CC1` (stereo not drawn) [Cpd 175, 2-(2,6-dioxopiperidin-3-yl)-4-(2-fluoro-4-((4-(isopropylsulfonyl)piperazin-1-yl)methyl)benzylamino)isoindoline-1,3-dione] was run?
The IC50 was under 200 nM.

How did the IC50 turn out when `O=C1CCC(N2C(=O)c3cccc(NCc4ccc(CN5CCN(c6noc7ccccc67)CC5)cc4F)c3C2=O)C(=O)N1` (stereo not drawn) [Cpd 176, 4-(4-((4-(benzo[d]isoxazol-3-yl)piperazin-1-yl)methyl)-2-fluorobenzylamino)-2-(2,6-dioxopiperidin-3-yl)isoindoline-1,3-dione] was run?
Its IC50 is under 200 nM.

How did the IC50 turn out when `O=C1CCC(N2C(=O)c3cccc(NCc4ccc(CN5CCN(c6nnc(C(F)(F)F)s6)CC5)cc4F)c3C2=O)C(=O)N1` (stereo not drawn) [Cpd 177, 2-(2,6-dioxopiperidin-3-yl)-4-(2-fluoro-4-((4-(5-(trifluoromethyl)-1,3,4-thiadiazol-2-yl)piperazin-1-yl)methyl)benzylamino)isoindoline-1,3-dione] was run?
The IC50 was under 200 nM.

With `Cc1nnc(C2CCN(Cc3ccc(CNc4cccc5c4C(=O)N(C4CCC(=O)NC4=O)C5=O)c(F)c3)CC2)o1` (stereo not drawn) [Cpd 178, 2-(2,6-dioxopiperidin-3-yl)-4-(2-fluoro-4-((4-(5-methyl-1,3,4-oxadiazol-2-yl)piperidin-1-yl)methyl)benzylamino)isoindoline-1,3-dione] as the molecule, how does the IC50 read?
The IC50 was 200 to 500 nM.

Which IC50 does the source give for `Cc1cc(CNc2cccc3c2C(=O)N(C2CCC(=O)NC2=O)C3=O)ccc1CN1CCN(c2cccnc2C(N)=O)CC1` (stereo not drawn) [Cpd 179, 3-(4-(4-((2-(2,6-dioxopiperidin-3-yl)-1,3-dioxoisoindolin-4-ylamino)methyl)-2-methylbenzyl)piperazin-1-yl)picolinamide] here?
Its IC50 is 751 to 1000 nM.

For `NC(=O)c1ncccc1N1CCN(Cc2ccc(CNc3cccc4c3C(=O)N(C3CCC(=O)NC3=O)C4=O)c(F)c2)CC1` (stereo not drawn) [Cpd 180, 3-(4-(4-((2-(2,6-dioxopiperidin-3-yl)-1,3-dioxoisoindolin-4-ylamino)methyl)-3-fluorobenzyl)piperazin-1-yl)picolinamide], which IC50 is on record?
Its IC50 is 200 to 500 nM.

For `NC(=O)c1cccc(N2CCN(Cc3ccc(CNc4cccc5c4C(=O)N(C4CCC(=O)NC4=O)C5=O)cc3)CC2)n1` (stereo not drawn) [Cpd 181, 6-(4-(4-((2-(2,6-dioxopiperidin-3-yl)-1,3-dioxoisoindolin-4-ylamino)methyl)benzyl)piperazin-1-yl)picolinamide], which IC50 is on record?
Its IC50 is under 200 nM.

How did the IC50 turn out when `Cc1cc(CNc2cccc3c2C(=O)N(C2CCC(=O)NC2=O)C3=O)ccc1CN1CCN(c2cccc(C(N)=O)n2)CC1` (stereo not drawn) [Cpd 182, 6-(4-(4-((2-(2,6-dioxopiperidin-3-yl)-1,3-dioxoisoindolin-4-ylamino)methyl)-2-methylbenzyl)piperazin-1-yl)picolinamide] was run?
The IC50 was under 200 nM.

`NC(=O)c1cccc(N2CCN(Cc3ccc(CNc4cccc5c4C(=O)N(C4CCC(=O)NC4=O)C5=O)cc3F)CC2)n1` (stereo not drawn) [Cpd 183, 6-(4-(4-((2-(2,6-dioxopiperidin-3-yl)-1,3-dioxoisoindolin-4-ylamino)methyl)-2-fluorobenzyl)piperazin-1-yl)picolinamide] was tested. Which IC50 did it give?
Its IC50 is under 200 nM.

Which IC50 does the source give for `NC(=O)c1cccc(N2CCN(Cc3ccc(CNc4cccc5c4C(=O)N(C4CCC(=O)NC4=O)C5=O)c(F)c3)CC2)n1` (stereo not drawn) [Cpd 184, 6-(4-(4-((2-(2,6-dioxopiperidin-3-yl)-1,3-dioxoisoindolin-4-ylamino)methyl)-3-fluorobenzyl)piperazin-1-yl)picolinamide] here?
The IC50 was under 200 nM.

Which IC50 does the source give for `O=C1CCC(N2C(=O)c3cccc(NCc4ccc(CN5CCN(c6cnccn6)CC5)cc4)c3C2=O)C(=O)N1` (stereo not drawn) [Cpd 185, 2-(2,6-dioxopiperidin-3-yl)-4-(4-((4-(pyrazin-2-yl)piperazin-1-yl)methyl)benzylamino)isoindoline-1,3-dione] here?
The IC50 was 200 to 500 nM.

How did the IC50 turn out when `Cc1cncc(N2CCN(Cc3ccc(CNc4cccc5c4C(=O)N(C4CCC(=O)NC4=O)C5=O)cc3)CC2)n1` (stereo not drawn) [Cpd 186, 2-(2,6-dioxopiperidin-3-yl)-4-(4-((4-(6-methylpyrazin-2-yl)piperazin-1-yl)methyl)benzylamino)isoindoline-1,3-dione] was run?
Its IC50 is 751 to 1000 nM.

With `O=C1CCC(N2C(=O)c3cccc(NCc4ccc(CN5CCN(c6noc7ccccc67)CC5)cc4)c3C2=O)C(=O)N1` (stereo not drawn) [Cpd 187, 4-(4-((4-(benzo[d]isoxazol-3-yl)piperazin-1-yl)methyl)benzylamino)-2-(2,6-dioxopiperidin-3-yl)isoindoline-1,3-dione] as the molecule, how does the IC50 read?
Its IC50 is 200 to 500 nM.

For `O=C1CCC(N2C(=O)c3cccc(NCc4ccc(CN5CCN(C(=O)c6ccccc6F)CC5)cc4F)c3C2=O)C(=O)N1` (stereo not drawn) [Cpd 188, 2-(2,6-dioxopiperidin-3-yl)-4-(2-fluoro-4-((4-(2-fluorobenzoyl)piperazin-1-yl)methyl)benzylamino)isoindoline-1,3-dione], which IC50 is on record?
Its IC50 is 751 to 1000 nM.

`NC(=O)c1cc(N2CCN(Cc3ccc(CNc4cccc5c4C(=O)N(C4CCC(=O)NC4=O)C5=O)cc3)CC2)ccn1` (stereo not drawn) [Cpd 189, 4-(4-(4-((2-(2,6-dioxopiperidin-3-yl)-1,3-dioxoisoindolin-4-ylamino)methyl)benzyl)piperazin-1-yl)picolinamide] was tested. Which IC50 did it give?
Its IC50 is 200 to 500 nM.

How did the IC50 turn out when `Cc1cc(CNc2cccc3c2C(=O)N(C2CCC(=O)NC2=O)C3=O)ccc1CN1CCN(c2ccnc(C(N)=O)c2)CC1` (stereo not drawn) [Cpd 190, 4-(4-(4-((2-(2,6-dioxopiperidin-3-yl)-1,3-dioxoisoindolin-4-ylamino)methyl)-2-methylbenzyl)piperazin-1-yl)picolinamide] was run?
Its IC50 is 200 to 500 nM.

`NC(=O)c1cc(N2CCN(Cc3ccc(CNc4cccc5c4C(=O)N(C4CCC(=O)NC4=O)C5=O)cc3F)CC2)ccn1` (stereo not drawn) [Cpd 191, 4-(4-(4-((2-(2,6-dioxopiperidin-3-yl)-1,3-dioxoisoindolin-4-ylamino)methyl)-2-fluorobenzyl)piperazin-1-yl)picolinamide] was tested. Which IC50 did it give?
The IC50 was 501 to 750 nM.

Which IC50 does the source give for `NC(=O)c1cc(N2CCN(Cc3ccc(CNc4cccc5c4C(=O)N(C4CCC(=O)NC4=O)C5=O)c(F)c3)CC2)ccn1` (stereo not drawn) [Cpd 192, 4-(4-(4-((2-(2,6-dioxopiperidin-3-yl)-1,3-dioxoisoindolin-4-ylamino)methyl)-3-fluorobenzyl)piperazin-1-yl)picolinamide] here?
The IC50 was under 200 nM.

`Cc1nnc(N2CCN(Cc3ccc(CNc4cccc5c4C(=O)N(C4CCC(=O)NC4=O)C5=O)cc3)CC2)s1` (stereo not drawn) [Cpd 193, 2-(2,6-dioxopiperidin-3-yl)-4-(4-((4-(5-methyl-1,3,4-thiadiazol-2-yl)piperazin-1-yl)methyl)benzylamino)isoindoline-1,3-dione] was tested. Which IC50 did it give?
The IC50 was 200 to 500 nM.

`Cc1nsc(N2CCN(Cc3ccc(CNc4cccc5c4C(=O)N(C4CCC(=O)NC4=O)C5=O)cc3)CC2)n1` (stereo not drawn) [Cpd 194, 2-(2,6-dioxopiperidin-3-yl)-4-(4-((4-(3-methyl-1,2,4-thiadiazol-5-yl)piperazin-1-yl)methyl)benzylamino)isoindoline-1,3-dione] was tested. Which IC50 did it give?
Its IC50 is under 200 nM.

With `Cn1cc(N2CCN(Cc3ccc(CNc4cccc5c4C(=O)N(C4CCC(=O)NC4=O)C5=O)cc3)CC2)cn1` (stereo not drawn) [Cpd 195, 2-(2,6-dioxopiperidin-3-yl)-4-(4-((4-(1-methyl-1H-pyrazol-4-yl)piperazin-1-yl)methyl)benzylamino)isoindoline-1,3-dione] as the molecule, how does the IC50 read?
Its IC50 is 200 to 500 nM.

With `O=C1CCC(N2C(=O)c3cccc(NCc4ccc(CN5CCN(c6ncsn6)CC5)cc4)c3C2=O)C(=O)N1` (stereo not drawn) [Cpd 196, 4-(4-((4-(1,2,4,-thiadiazol-3-yl)piperazin-1-yl)methyl)benzylamino)-2-(2,6-dioxopiperidin-3-yl)isoindoline-1,3-dione] as the molecule, how does the IC50 read?
The IC50 was under 200 nM.

How did the IC50 turn out when `CCc1nsc(N2CCN(Cc3ccc(CNc4cccc5c4C(=O)N(C4CCC(=O)NC4=O)C5=O)cc3)CC2)n1` (stereo not drawn) [Cpd 197, 2-(2,6-dioxopiperidin-3-yl)-4-(4-((4-(3-ethyl-1,2,4-thiadiazol-5-yl)piperazin-1-yl)methyl)benzylamino)isoindoline-1,3-dione] was run?
Its IC50 is under 200 nM.

How did the IC50 turn out when `CCc1nnc(N2CCN(Cc3ccc(CNc4cccc5c4C(=O)N(C4CCC(=O)NC4=O)C5=O)cc3)CC2)o1` (stereo not drawn) [Cpd 198, 2-(2,6-dioxopiperidin-3-yl)-4-(4-((4-(5-ethyl-1,3,4-oxadiazol-2-yl)piperazin-1-yl)methyl)benzylamino)isoindoline-1,3-dione] was run?
Its IC50 is 751 to 1000 nM.

`Cc1cc(N2CCN(Cc3ccc(CNc4cccc5c4C(=O)N(C4CCC(=O)NC4=O)C5=O)cc3)CC2)no1` (stereo not drawn) [Cpd 199, 2-(2,6-dioxopiperidin-3-yl)-4-(4-((4-(5-methylisoxazol-3-yl)piperazin-1-yl)methyl)benzylamino)isoindoline-1,3-dione] was tested. Which IC50 did it give?
The IC50 was under 200 nM.

How did the IC50 turn out when `Cc1cc(CNc2cccc3c2C(=O)N(C2CCC(=O)NC2=O)C3=O)ccc1CN1CC2(CCCC2)C1` (stereo not drawn) [Cpd 200, 4-(4-(2-azaspiro[3.4]octan-2-ylmethyl)-3-methylbenzylamino)-2-(2,6-dioxopiperidin-3-yl)isoindoline-1,3-dione] was run?
The IC50 was under 200 nM.

With `Cc1cc(CNc2cccc3c2C(=O)N(C2CCC(=O)NC2=O)C3=O)ccc1CN1CC(N2CCOCC2)C1` (stereo not drawn) [Cpd 201, 2-(2,6-dioxopiperidin-3-yl)-4-(3-methyl-4-((3-morpholinoazetidin-1-yl)methyl)benzylamino)isoindoline-1,3-dione] as the molecule, how does the IC50 read?
Its IC50 is under 200 nM.

How did the IC50 turn out when `Cc1cc(CNc2cccc3c2C(=O)N(C2CCC(=O)NC2=O)C3=O)ccc1CN1CC(C(C)C)C1` (stereo not drawn) [Cpd 202, 2-(2,6-dioxopiperidin-3-yl)-4-(4-((3-isopropylazetidin-1-yl)methyl)-3-methylbenzylamino)isoindoline-1,3-dione] was run?
The IC50 was under 200 nM.

`NC(=O)c1ccc(N2CCN(Cc3ccc(CNc4cccc5c4C(=O)N([C@H]4CCC(=O)NC4=O)C5=O)cc3)CC2)nc1` [Cpd 203, (S)-6-(4-(4-((2-(2,6-dioxopiperidin-3-yl)-1,3-dioxoisoindolin-4-ylamino)methyl)benzyl)piperazin-1-yl)nicotinamide] was tested. Which IC50 did it give?
The IC50 was under 200 nM.
